Like-named read-outs stand apart in the source and are kept apart here.
Key:
Pre-REP TIL [1] = type: cell-based
Procedure: Phase 1: Small Scale Evaluation of Various Antibiotics in shipping medium and CM1 were conducted in 2 separate rounds using 2 different tumors as shown in Tables 53 and 54. The cultures were terminated after the Pre-REP. All the overnight incubations in HTS included 2.5 μg/mL Amphotericin B (or 10 μg/mL for the “high AmpB concentration” condition) and 50 μg/mL gentamicin
All the test and control conditions were tested in quadruplicates. Total Viable Cells and % Viability was recorded on Day 11 of Pre-REP.

S. aureus [2] = assay: Antibiotics on growth of bacteria in culture media (HTS then CM1); type: cell-based; details: S. aureus (strain 1), HTS 24 hours at 2-8° C., then CM1 11 days, Gentamicin 50 μg/mL, Vancomycin 100 μg/mL
Procedure: In these experiments, the following antibiotics were added to Gram+bacteria S. aureus and E. faecalis in hypothermosol (HTS) at three different concentrations of bacteria: • a. Gentamicin (50 μg/mL) • b. […] Vancomycin (100 μg/mL)

E. faecalis [3] = assay: as above; type: cell-based; details: HTS 24 hours at 2-8° C., then CM1 11 days, Gentamicin 50 μg/mL, Vancomycin 100 μg/mL
Procedure: Additional experiments were performed to test the ability of vancomycin to prevent growth of vancomycin sensitive bacteria in culture medium. In these experiments, the following antibiotics were added to Gram+bacteria S. aureus and E. faecalis in hypothermosol (HTS) at three different concentrations of bacteria: • a. Gentamicin (50 μg/mL) • b. Gentamicin (50 μg/mL)+Vancomycin (100 μg/mL) • c. Vancomycin (100 μg/mL)
The mixtures were incubated at 24 hours at 2-8° C. and then 1 mL of each of the samples were added to 20 mL of CM1 medium in the same concentrations of antibiotics above. The mixtures were incubated for 11 days and bacterial growth was visually assessed.

E. faecalis [4] = assay: Antibiotics on bacterial growth of inoculated tissue fragments (HTS, wash, CM1); type: cell-based; details: for bacterial growth, visually assessed: inoculated tissue fragments, washed 3×, 11 days
Procedure: Gentamicin (50 μg/mL) • b. […] Vancomycin (100 μg/mL)

S. aureus [5] = details: for bacterial growth, visually assessed: S. aureus (strain 1), inoculated tissue fragments, washed 3×, 11 days
Procedure: Additional experiments were performed to test the ability of vancomycin to prevent growth of vancomycin sensitive bacteria in culture medium. In these experiments, tissue fragments were inoculated in HTS with three different loads of S. aureus and E. faecalis bacteria and the following antibiotics: • a.
The 6 HTS inoculates (iHTS) shown were incubated at 24 hours at 2-8° C. and washed 3× with tumor wash buffer with the same concentrations of antibiotics above. The tumor samples were incubated for 11 days and bacterial growth was visually assessed.

Pre-REP TIL [6] = assay: Phase II full scale Pre-REP: extended phenotype of Day 11 samples; details: 100 μg/mL in tumor shipping medium and CM1 Pre-REP media
Procedure: The received tumor was separated into 2 equal portions and stored overnight similarly to the overnight incubation in phase I of testing. The chosen antibiotic condition was tested against Gentamicin Sulfate control at full scale Pre-REP according to the Day 0 Gen 2 Batch Record. TVC, viability, identity, function, and extended phenotyping data were obtained.
Both antibiotics were tested in shipping medium and CM1 at a concentration of 100 μg/mL.

SMILES	cytotoxicity / impact on Pre-REP TIL cell growth (in words) (Pre-REP TIL [1])	bacterial growth, visually assessed (S. aureus [2])	bacterial growth, visually assessed (S. aureus [2]; listed as Vanco)	bacterial growth, visually assessed (E. faecalis [3])	bacterial growth, visually assessed (E. faecalis [3]; listed as Vanco)	bacterial growth, visually assessed (E. faecalis [4]; Bacterial Load High)	bacterial growth, visually assessed (E. faecalis [4]; Bacterial Load Low)	bacterial growth, visually assessed (E. faecalis [4]; Bacterial Load Med)	bacterial growth (summary in words) (E. faecalis [4]; all the bacterial loads tested)	bacterial growth, visually assessed (S. aureus [5]; Bacterial Load High)	bacterial growth, visually assessed (S. aureus [5]; Bacterial Load Low)	bacterial growth, visually assessed (S. aureus [5]; Bacterial Load Med)	bacterial growth (summary in words) (S. aureus [5]; S. aureus, all the bacterial loads tested)	effect on the Pre-REP cell product (TVC, Viability, Identity, Function, Extended Phenotyping; in words) (Pre-REP TIL [6])	cytotoxicity / impact on Pre-REP TIL cell growth (in words) (Pre-REP TIL [1]; Day 11 of Pre-REP, quadruplicates, with 50 μg/mL gentamicin)
CN[C@H](CC(C)C)C(=O)N[C@H]1C(=O)N[C@@H](CC(N)=O)C(=O)N[C@H]2C(=O)N[C@H]3C(=O)N[C@H](C(=O)N[C@H](C(=O)O)c4cc(O)cc(O)c4-c4cc3ccc4O)[C@H](O)c3ccc(c(Cl)c3)Oc3cc2cc(c3O[C@@H]2O[C@H](CO)[C@@H](O)[C@H](O)[C@H]2O[C@H]2C[C@](C)(N)[C@H](O)[C@H](C)O2)Oc2ccc(cc2Cl)[C@H]1O [vancomycin]	least cytotoxicity	inhibited grown	No Growth	inhibited grown	No Growth	No Growth	No Growth	No Growth	no observed growth	No Growth	No Growth	No Growth	no observed growth	no deleterious effect	
C[C@@H]1[C@H](O)[C@@H](C)/C=C/C=C/C=C/C=C/C=C/C=C/C=C/[C@H](O[C@@H]2O[C@H](C)[C@@H](O)[C@H](N)[C@@H]2O)C[C@@H]2O[C@](O)(C[C@@H](O)C[C@@H](O)[C@H](O)CC[C@@H](O)C[C@@H](O)CC(=O)O[C@H]1C)C[C@H](O)[C@H]2C(=O)O [amphotericin B]															did not appear cytotoxic
